Test results as given in patent US20200181192A1, “DISULFIDE BIOCONJUGATION” (The Regents of the University of California, priority 2017, published 2020).

How the values were obtained:
[1] = in diethyl ether; diphenyl disulfide, benzyl amine, diphenyl acetic acid, 1-butanethiol; GC-MS
Description: To determine the stability and selectivity of bicyclobutane molecules endo-3, exo-3 were solubilized in diethyl ether and tested with a variety of functional groups (diphenyl disulfide, benzyl amine, diphenyl acetic acid, and 1-butanethiol) then analyzed on a GC-MS to confirm the continued presence of starting materials.

[2] = in solvent left on the bench, over 2 days
[3] = Solubility in polar solvents; assay type: physicochemical; settings: for solubility in methanol:water mixture: 9:1 methanol:water; for solubility in polar solvents: acetonitrile, methanol
Experimental: Previous bicyclobutane molecules (1a, 1b) were determined by Baran and coworkers to be bench stable so no further studies were conducted on their stability.

[4] = determined by Baran and coworkers; no further studies conducted; cited from earlier work

With `OC[C@H]1[C@H]2C[C@@H]12` [endo-3, Endo-Bicyclo[1.1.-]butane-2-methanol] the “reaction with functional groups (continued presence of starting materials)” value [1] was “apparent only in the case with diphenyl acetic acid and 1-butane thiol”, the “stability in polar solvents by 1H-NMR” value [2] was “no change” and the “solubility in methanol:water mixture” value [3] was “soluble”.
For `Cc1ccc(S(=O)(=O)C23CC2C3)cc1` (stereo not shown) [1b, 1-tosylbicyclo[1.1.0]butane], the bench stability [4] is given as “bench stable” and the “solubility in polar solvents” value [3] is given as “not be completely soluble”.
In the case of `OC[C@@H]1[C@H]2C[C@@H]12` [exo-3, Exo-Bicyclo[1.1.-]butane-2-methanol], the “reaction with functional groups (continued presence of starting materials)” value [1] is reported as “apparent only in the case with diphenyl acetic acid and 1-butane thiol”, the “stability in polar solvents by 1H-NMR” value [2] is reported as “no change” and the “solubility in methanol:water mixture” value [3] is reported as “soluble”.
In the case of `O=S(=O)(c1ccccc1)C12CC1C2` (stereo not shown) [1a, 1-(phenylsulfonyl)bicyclo[1.1.0]butane], the bench stability [4] is given as “bench stable” and the “solubility in polar solvents” value [3] is given as “not be completely soluble”.
